This note sets out measurements from ChEMBL document CHEMBL5236643, “Discovery and characterization of orally bioavailable 4-chloro-6-fluoroisophthalamides as covalent PPARG inverse-agonists” (Bioorg Med Chem, 2023).

In brackets after ≈: the same amount, converted by molar mass. Activity calls are given as the source filed them. Where only a bound is given, the exact number is not on record here.

Series [1] deals with T1, Peroxisome proliferator-activated receptor gamma (Homo sapiens, UniProt P37231).
T1 sequence (P37231 whole entry): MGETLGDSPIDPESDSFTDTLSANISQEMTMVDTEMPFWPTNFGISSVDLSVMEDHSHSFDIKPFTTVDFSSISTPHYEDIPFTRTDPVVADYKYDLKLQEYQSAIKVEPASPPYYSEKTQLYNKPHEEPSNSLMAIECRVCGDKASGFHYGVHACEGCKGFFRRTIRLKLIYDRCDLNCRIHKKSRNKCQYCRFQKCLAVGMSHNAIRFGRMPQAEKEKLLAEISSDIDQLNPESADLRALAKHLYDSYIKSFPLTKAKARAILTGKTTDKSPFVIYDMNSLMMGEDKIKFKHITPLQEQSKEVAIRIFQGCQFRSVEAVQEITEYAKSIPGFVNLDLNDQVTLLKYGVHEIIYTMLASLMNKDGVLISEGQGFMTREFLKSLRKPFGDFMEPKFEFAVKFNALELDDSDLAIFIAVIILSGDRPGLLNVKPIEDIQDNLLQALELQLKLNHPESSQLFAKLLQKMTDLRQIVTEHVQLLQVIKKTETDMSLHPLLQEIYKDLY
Kind of series: Inverse agonist activity at GST tagged human PPARgamma LBD (231 to 505 residues) expressed in Escherichia coli BL21(DE3) assessed as recruitment of fluorescein labeled corepressor NCOR2 Smrt-ID2 peptide to PPARgamma LBD incubated for 24 hrs by LanthaScreen TR-FRET assay. Background: TR-FRET usually uses a lanthanide donor and a delayed reading to cut background.

Series [2] deals with T1, Peroxisome proliferator-activated receptor gamma. Kind of series: Inverse agonist activity at human PPARgamma in human RT112/84 transfected with NLuc-fused FABP4 assessed as reduction in PPARgamma transactivation incubated for 6 to 18 hrs by Nano-Glo luciferase assay. Type of series: cell-based.
Series [3] can be described thus: Antiproliferative activity against human UM-UC-9 assessed as inhibition of cell proliferation by measuring maximum efficacy after 7 days by IncuCyte live-cell imaging assay. Type of series: functional. The settings on record: UM-UC-9, 168 h, time 7 day.
A short description of series [4]: Apparent permeability across basolateral to apical side in human Caco-2 cells at 2 uM incubated for 2 hrs by LC-MS/MS analysis. Type of series: ADME, cell-based. For orientation: Passage across Caco-2 layers is used to estimate intestinal permeability.
A short description of series [5]: AUClast in Wistar rat at 0.3 mg/kg,iv measured upto 24 hrs by HPLC-MS/MS analysis. Further details: dose 0.3 mg/kg, time < 24 hrs, route iv. Type of series: ADME, organism-based. The settings on record: in vivo.
Series [6] can be described thus: Stability of compound in GSH at pH 7.4 assessed as parent compound remaining at 10 mM and measured after 24 hrs by HPLC-UV analysis. Type of series: physicochemical. The settings on record: GSH solution, read-out: Stability.
A short description of series [7]: Thermodynamic solubility of compound at pH 6.5 PBS buffer. Type of series: physicochemical. The settings on record: read-out: Therm_solubility.
Series [8] is described as follows: Tmax in NMRI-nu/nu mouse at 100 mg/kg,po measured upto 24 hrs by HPLC-MS/MS analysis. Type of series: ADME, organism-based. The settings on record: in vivo.
For series [9], the target named is T2, Peroxisome proliferator-activated receptor gamma (Mus musculus) (UniProt P37238).
T2 sequence (whole entry): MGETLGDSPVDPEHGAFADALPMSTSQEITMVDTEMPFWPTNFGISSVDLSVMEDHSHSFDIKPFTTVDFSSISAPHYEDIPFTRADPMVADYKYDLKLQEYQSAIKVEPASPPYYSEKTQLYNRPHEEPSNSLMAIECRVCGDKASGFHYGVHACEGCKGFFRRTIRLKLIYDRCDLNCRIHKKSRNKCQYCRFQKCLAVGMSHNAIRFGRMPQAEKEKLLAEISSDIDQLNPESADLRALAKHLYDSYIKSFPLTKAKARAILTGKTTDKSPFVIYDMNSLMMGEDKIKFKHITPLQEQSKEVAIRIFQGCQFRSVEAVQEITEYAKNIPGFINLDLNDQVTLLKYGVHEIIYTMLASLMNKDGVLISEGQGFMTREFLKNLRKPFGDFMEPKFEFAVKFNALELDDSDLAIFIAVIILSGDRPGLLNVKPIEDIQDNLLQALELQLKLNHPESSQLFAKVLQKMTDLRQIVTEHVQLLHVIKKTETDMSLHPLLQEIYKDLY
Kind of series: Inverse agonist activity at PPARgamma in NMRI-nu/nu mouse assessed as reduction in Fabp4 mRNA expression in adipose tissue at 100 mg/kg for 3 days and measured 6 hrs last dose by qPCR analysis. Type of series: organism-based. The settings on record: time 3.0 day. In general terms: In qPCR the cycle at which signal appears reflects the starting amount.

The nature of series [10]: Stability of compound in GSH at pH 7.4 assessed as parent compound remaining at 10 mM and measured after 4 hrs by HPLC-UV analysis. The settings on record: GSH solution, read-out: Stability. Type of series: physicochemical.
Series [11] is described as follows: AUClast in NMRI-nu/nu mouse at 100 mg/kg,po measured upto 24 hrs by HPLC-MS/MS analysis. Type of series: ADME, organism-based. The settings on record: in vivo. Also on record: time < 24 hrs, dose 100 mg/kg, route po.
A short description of series [12]: Microsomal stability in human liver microsomes assessed as intrinsic clearance at 1 uM measured upto 60 mins in presence of NADPH by HPLC-MS/MS analysis. Type of series: ADME, Microsome. The settings on record: read-out: CLH (converted).
Series [13] in a line: Cmax in NMRI-nu/nu mouse at 100 mg/kg,po measured upto 24 hrs by HPLC-MS/MS analysis. Type of series: ADME, organism-based. Also on record: time < 24 hrs, dose 100 mg/kg, route po. The settings on record: in vivo.
A short description of series [14]: Stability in rat hepatocytes assessed as intrinsic clearance at 1 uM incubated for 1 hr by HPLC-MS/MS analysis. Type of series: ADME, cell-based, Hepatocyte. The settings on record: read-out: CLH (converted).
A short description of series [15]: Stability of compound in cysteine at pH 7.4 assessed as parent compound remaining at 10 mM and measured after 1 hrs by HPLC-UV analysis. The settings on record: cysteine solution, read-out: Stability. Type of series: physicochemical.
The target in series [16] is T3, Nuclear receptor subfamily 1 group I member 2 (Homo sapiens, UniProt O75469).
T3 sequence (O75469 whole entry): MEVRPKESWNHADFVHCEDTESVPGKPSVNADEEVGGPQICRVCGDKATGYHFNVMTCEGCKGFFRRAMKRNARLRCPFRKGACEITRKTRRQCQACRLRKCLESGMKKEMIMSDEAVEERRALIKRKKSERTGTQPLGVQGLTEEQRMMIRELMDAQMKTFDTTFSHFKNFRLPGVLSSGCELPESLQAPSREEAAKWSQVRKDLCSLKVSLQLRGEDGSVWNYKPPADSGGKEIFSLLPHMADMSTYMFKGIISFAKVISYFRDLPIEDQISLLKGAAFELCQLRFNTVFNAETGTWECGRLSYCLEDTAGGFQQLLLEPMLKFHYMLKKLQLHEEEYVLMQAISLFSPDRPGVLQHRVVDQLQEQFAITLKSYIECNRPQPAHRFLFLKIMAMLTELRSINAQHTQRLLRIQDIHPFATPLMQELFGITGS
The series is described as follows: Transactivation of human PXR in human HepG2 cells co-expressing luciferase gene under control of CYP3A4 promoter assessed as increase in luciferase activity incubated for 24 hrs by luminescence based analysis. Type of series: ADME, cell-based.

The nature of series [17]: Stability of compound in GSH at pH 7.4 assessed as parent compound remaining at 10 mM and measured after 1 hrs by HPLC-UV analysis. Type of series: physicochemical. The settings on record: GSH solution, read-out: Stability.
Series [18] is described as follows: Stability of compound in GSH at pH 7.4 assessed as parent compound remaining at 10 mM and measured after 2 hrs by HPLC-UV analysis. Type of series: physicochemical. The settings on record: GSH solution, read-out: Stability.
Series [19] can be described thus: Stability of compound in cysteine at pH 7.4 assessed as parent compound remaining at 10 mM and measured after 4 hrs by HPLC-UV analysis. Type of series: physicochemical. The settings on record: cysteine solution, read-out: Stability.
Series [20] can be described thus: Clearance in Wistar rat at 0.3 mg/kg,iv measured upto 24 hrs by HPLC-MS/MS analysis. Type of series: ADME, organism-based. The settings on record: in vivo.
The nature of series [21]: Half life in Wistar rat at 0.3 mg/kg,iv measured upto 24 hrs by HPLC-MS/MS analysis. Type of series: ADME, organism-based. The settings on record: in vivo.
The nature of series [22]: Stability of compound in cysteine at pH 7.4 assessed as parent compound remaining at 10 mM and measured after 2 hrs by HPLC-UV analysis. Type of series: physicochemical. The settings on record: cysteine solution, read-out: Stability.
Series [23] in a line: Volume of distribution at steady state in Wistar rat at 0.3 mg/kg,iv measured upto 24 hrs by HPLC-MS/MS analysis. Type of series: ADME, organism-based. The settings on record: in vivo, read-out: Vdss.
Series [24] is described as follows: Antiproliferative activity against human UM-UC-9 assessed as inhibition of cell proliferation measured after 7 days by IncuCyte live-cell imaging assay. The settings on record: UM-UC-9, 168 h.
The nature of series [25]: Stability of compound in cysteine at pH 7.4 assessed as parent compound remaining at 10 mM and measured after 24 hrs by HPLC-UV analysis. Type of series: physicochemical. The settings on record: cysteine solution, read-out: Stability.

Broadly, the EC50 is the concentration that produces a half-maximal response. By IC50 is commonly meant the concentration that inhibits the measured activity by half. Turning to `Cc1cccc(CNC(=O)c2ccc(Cl)c(C(=O)Nc3ccccc3)c2)c1`, the EC50 in series [1] was 3 µM. For the same molecule, the IC50 in series [2] was more than 5 µM.
In the case of `O=C(NCc1ccccc1)c1cc(Cl)cc(C(=O)Nc2ccccc2)c1`, in series [1], the EC50 was more than 5 µM. For the same molecule, in series [2], the IC50 is more than 5 µM.
`COCCOCc1cc(F)ccc1CNC(=O)c1cc(C(=O)Nc2ccc(C(F)(F)F)cc2C)c(Cl)cc1F`: the EC50 in series [1] came to 0.031 µM.
Turning to `Cc1cc(C(=O)NCc2ccccc2)cc(C(=O)Nc2ccccc2)c1Cl`, the EC50 in series [1] was more than 33 µM. Moreover, the IC50 in [2] is more than 5 µM.
Regarding `O=C(NCc1ccc(F)c(F)c1)c1ccc(Cl)c(C(=O)Nc2ccccc2)c1`, the Emax in [3] was found to be 103%. In addition, the EC50 in series [1] amounted to 1.75 µM.
Consider `Cc1ccccc1CNC(=O)c1ccc(Cl)c(C(=O)Nc2ccccc2)c1`, for which, in [1], the EC50 turned out to be 1.77 µM. Further, the IC50 in series [2] stood at 1.04 µM.
As usually defined, the Papp B→A is how fast a substance crosses the layer from the basolateral side. Broadly, the Tmax is the time at which the peak concentration occurs. The AUC(0-t) is the area under the concentration-time curve up to a stated or last time point. A word on the Cmax: it is the peak of the concentration-time curve. Usually clearance stands for the volume of plasma or blood freed of the substance per unit of time. Read a high clearance as a high capacity for elimination. Broadly, the half-life is the time needed for the level to fall by half in the phase considered. A high value points to slow loss. For the molecule `Cc1cc(N2CCOCC2)cnc1NC(=O)c1cc(C(=O)NCc2ccc(F)c(F)c2)c(F)cc1Cl`, the Papp B→A at 2 h, 2 µM in [4] was 10.9 ×10⁻⁶ cm/s. For the same molecule, in series [5], the AUClast was found to be 0.35 kg·h/L. Also, the remaining at 24 h, 10000 µM in series [6] and in series [25] was 100% throughout. Further, the solubility thermodynamic in [7] stood at 1.6 µg/mL (≈ 3.08 µM). Moreover, in series [8], the Tmax stood at 7 h. Further, the Emax in series [3] was determined as 99%. Besides, in series [9], the result was inactive. Moreover, the remaining at 4 h, 10000 µM in series [10] and in series [19] was 100% in each case. The same molecule returned an AUC(0-t) at 24 h in series [11] of 520 ng·h/mL. The CLint scaled at 1 µM was 14.7 mL/min/kg in series [12] and 42.5 mL/min/kg in series [14]. Besides, in [13], the Cmax was found to be 73 nM. For the same molecule, the remaining at 1 h, 10000 µM in [15] and in [17] was 100% throughout. In addition, the values for the IC50 in [16] and in [24] were more than 49.8 µM and 0.0983 µM, respectively. Besides, the remaining at 2 h, 10000 µM in series [18] and in series [22] was 100% in each case. This molecule had a clearance in series [20] of 46.7 mL/min/kg. Besides, the half-life in [21] was 0.21 h. Further, the Vd in [23] is 0.84 L/kg.
For the molecule `O=C(NCc1ccccc1)c1ccc(F)c(C(=O)Nc2ccccc2)c1`, the EC50 in series [1] was more than 5 µM. For the same molecule, the IC50 in series [2] is more than 5 µM.
